This assay has as its target T1, human glucagon receptor (Homo sapiens, UniProt P47871).
T1 construct: expressed in transfected cells; host or cells: BHK cells (parent BHK570, CRE luciferase clone BHK/KZ10-20-48), clone pLJ6'-4-25
The assay can be described thus: Glucagon receptor binding, 125I-glucagon displacement SPA on isolated membranes. As to conditions: displacement of 125I-glucagon from membranes; read-out: IC50 GlucR. Here is the method: The purpose of this assay was to test the in vitro receptor binding activity (i.e. affinity) of the glucagon derivatives of the invention. The receptor binding activity is a measure of affinity of a derivative for the human glucagon receptor.
The receptor binding of each compound to the human glucagon receptor was measured in a displacement binding assay. In this type of assay a labelled ligand (in this case 125I-glucagon) is bound to the receptor. Each derivative was added in a series of concentrations to isolated membranes containing the human glucagon receptor and displacement of the labelled ligand is monitored. The receptor binding was reported as the concentration at which half of the labelled ligand is displaced from the receptor, the IC50 value.
In order to test the binding of the derivatives to albumin, the assay may be performed in a very low concentration of serum albumin (max. 0.001% final assay concentration) as well as in the presence of a higher concentration of serum albumin (0.2% final assay concentration). An increase of the IC50 value, in the presence of serum albumin indicates an affinity to serum albumin and represents a method to predict a protracted pharmacokinetic profile of the test substance in animal models.
The following chemicals were used in the assay: DMEM w Glutamax (Gibco 61965-026), Pen/strep (Invitrogen 15140-122), G418 (Invitrogen 10131-027), Versene (Gibco 15040), 1 M Hepes (Gibco 15630), PBS (Invitrogen 14190-094), fetal calf serum (Invitrogen 16140-071), MgCl2 (Merck 1.05832.1000), EDTA (Invitrogen 15575-038), CaCl2 (Sigma, C5080), Tween 20 (Amresco 0850C335), ovalbumin (Sigma A5503), SPA particles (wheat germ agglutinin (WGA) SPA beads, Perkin Elmer RPNQ0001), [125I]-glucagon (produced in-house), OptiPlate™-96 (Packard 6005290).
HME buffer consisted of 25 mM HEPES, 2 mM MgCl2 and 1 mM EDTA, and pH was adjusted to 7.4. Assay buffer consisted of 50 mM HEPES supplemented with 5 mM MgCl2, 1 mM CaCl2, 0.02% Tween 20 and 0.1% Ovalbumin, and pH was adjusted to 7.4.
The cells used in this assay (clone BHK hGCGR A3*25) were BHK cells stable transfected with an expression plasmid containing the cDNA encoding the human glucagon receptor.
The cells were grown at 5% CO2 in DMEM, 10% fetal calf serum, 1% Pen/Strep (Penicillin/Streptomycin) and 1.0 mg/ml of the selection marker G418. To make a membrane preparation the cells were grown to approximately 80% confluence. The cells were washed twice in phosphate-buffered saline and harvested. The cells were pelleted using a brief centrifugation and the cell pellet was kept on ice. Lyse the cells by adding approx. 5 ml HME buffer, mix by pipetting and snap freeze in liquid nitrogen. Thaw quickly and add HME buffer to 10 ml. The cell pellet was homogenised with an ULTRA-THURRAX dispersing instrument for 20-30 sec. The homogenate was centrifuged at 20.000×G, 4° C. for 10 min. The pellet was re-suspended (homogenised) in 1-2 ml HME buffer. The protein concentration was determined. The membranes were aliquoted and snap-frozen in liquid nitrogen and stored at minus 80° C.
1. For the receptor binding assay, 50 μl of the assay buffer was added to each well of an assay plate.
2. Test compounds were serially diluted to give the following concentrations: 8×10EE-7 M, 8×10EE-8 M, 8×10EE-9 M, 8×10EE-10 M, 8×10EE-11 M, 8×10EE-12 M and 8×10EE-13 M. Twenty-five μl were added to appropriate wells in the assay plate.
3. Cell membrane aliquots were thawed and diluted to their working concentration. Fifty μl were added to each well in the assay plate.
4. WGA SPA beads were suspended in assay buffer at 20 mg/ml. The suspension was diluted to 10 mg/ml in assay buffer just prior to addition to the assay plate. Fifty μl were added to each well in the assay plate.
5. The incubation was started by adding 25 μl of 480 pM solution of [125I]-glucagon to each well of the assay plate. A 25 μl aliquot was reserved for measuring total counts/well.
6. The assay plate was incubated for 2 h at 25° C.
7. […]
(In a radioligand displacement assay an active substance lowers the binding of a labelled ligand.)

The term IC50 denotes the point on the concentration scale where inhibition reaches its midpoint.

Numbered stars: 1 amine (or outer) side, 2 acyl side, 3 side chain; on linkers, the order of the positions; unused ones are H or OH. Bridge positions count the residues as written; N and C are the ends. Square brackets hold non-standard residues; d marks the D form. Side chains are listed from the residue outwards. Peptide text beside a SMILES is read from it. I, II: the chains in the order shown. * marks the point of attachment. C18 diacid = O=C(O)CCCCCCCCCCCCCCCCC(=O)*; γGlu = O=C(O)[C@H](CCC(=O)[*:2])N[*:1]; Ac4c = NC1(C(=O)O)CCC1; AEEA = NCCOCCOCC(=O)O; Aib = CC(C)(N)C(=O)O

T1 sequence (P47871 26-477): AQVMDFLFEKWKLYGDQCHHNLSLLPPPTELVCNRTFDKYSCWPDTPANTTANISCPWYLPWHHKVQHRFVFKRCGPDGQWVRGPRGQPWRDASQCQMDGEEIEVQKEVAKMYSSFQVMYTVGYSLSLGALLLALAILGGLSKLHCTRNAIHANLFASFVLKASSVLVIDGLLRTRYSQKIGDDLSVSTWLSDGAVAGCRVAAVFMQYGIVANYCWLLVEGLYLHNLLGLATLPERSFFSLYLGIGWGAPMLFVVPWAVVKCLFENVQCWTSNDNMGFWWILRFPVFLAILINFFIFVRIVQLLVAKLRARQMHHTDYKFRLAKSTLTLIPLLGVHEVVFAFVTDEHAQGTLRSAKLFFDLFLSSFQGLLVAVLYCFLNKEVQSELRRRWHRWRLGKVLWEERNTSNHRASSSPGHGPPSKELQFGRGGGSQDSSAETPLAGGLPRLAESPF

As for `CC(C)C[C@H](NC(=O)[C@H](Cc1ccc(O)cc1)NC(=O)[C@H](CCCCN)NC(=O)[C@H](CO)NC(=O)[C@H](CC(C)C)NC(=O)[C@H](CC(=O)O)NC(=O)[C@H](CO)NC(=O)[C@@H](NC(=O)[C@H](Cc1ccccc1)NC(=O)[C@@H](NC(=O)CNC(=O)[C@H](Cc1c[nH]cn1)NC(=O)C(C)(C)NC(=O)[C@@H](N)Cc1c[nH]cn1)[C@@H](C)O)[C@@H](C)O)C(=O)N[C@@H](CCC(=O)O)C(=O)N[C@@H](CO)C(=O)N[C@@H](CCCNC(=N)N)C(=O)N[C@@H](CCCNC(=N)N)C(=O)N[C@@H](C)C(=O)N[C@@H](CCCNC(=N)N)C(=O)N[C@@H](CCC(=O)O)C(=O)N[C@@H](Cc1ccccc1)C(=O)N[C@H](C(=O)N[C@@H](CCC(N)=O)C(=O)N[C@@H](Cc1c[nH]c2ccccc12)C(=O)N[C@@H](CC(C)C)C(=O)N[C@@H](CC(C)C)C(=O)N[C@@H](CCCCNC(=O)CC[C@H](NC(=O)COCCOCCNC(=O)COCCOCCNC(=O)CC[C@H](NC(=O)CC[C@H](NC(=O)CCCCCCCCCCCCCCCCC(=O)O)C(=O)O)C(=O)O)C(=O)O)C(=O)N[C@H](C(N)=O)[C@@H](C)O)C(C)C` [Example 30, N^ε28-[(4S)-4-carboxy-4-[[2-[2-[2-[[2-[2-[2-[[(4S)-4-carboxy-4-[[(4S)-4-carboxy-4-(17-carboxyheptadecanoylamino)butanoyl]amino]butanoyl]amino]ethoxy]ethoxy]acetyl]amino]ethoxy]ethoxy]acetyl]amino]butanoyl]-[Aib2,His3,Leu10,Glu15,Arg20,Glu21,Leu27,Lys28]-Glucagon amide] (H-H[Aib]HGTFTSDLSKYLESRRAREFVQWLLK([γGlu-AEEA-AEEA-γGlu-γGlu-C18 diacid])T-NH2; N-terminus assumed), the IC50 came to 0.5 nM.

Consider `CC(C)C[C@H](NC(=O)[C@H](Cc1ccc(O)cc1)NC(=O)[C@H](CCCCN)NC(=O)[C@H](CO)NC(=O)[C@H](CC(C)C)NC(=O)[C@H](CC(=O)O)NC(=O)[C@H](CO)NC(=O)[C@@H](NC(=O)[C@H](Cc1ccccc1)NC(=O)[C@@H](NC(=O)CNC(=O)[C@H](Cc1c[nH]cn1)NC(=O)C(C)(C)NC(=O)[C@@H](N)Cc1c[nH]cn1)[C@@H](C)O)[C@@H](C)O)C(=O)N[C@@H](CCC(=O)O)C(=O)N[C@@H](CO)C(=O)N[C@@H](CCCNC(=N)N)C(=O)N[C@@H](CCCNC(=N)N)C(=O)N[C@@H](C)C(=O)N[C@@H](CCCNC(=N)N)C(=O)N[C@@H](CCC(=O)O)C(=O)N[C@@H](Cc1ccccc1)C(=O)N[C@H](C(=O)N[C@@H](CCC(N)=O)C(=O)N[C@@H](Cc1c[nH]c2ccccc12)C(=O)N[C@@H](CC(C)C)C(=O)N[C@@H](CC(C)C)C(=O)N[C@@H](CCCCNC(=O)CC[C@H](NC(=O)CC[C@H](NC(=O)COCCOCCNC(=O)COCCOCCNC(=O)CC[C@H](NC(=O)CCCCCCCCCCCCCCCCC(=O)O)C(=O)O)C(=O)O)C(=O)O)C(=O)N[C@H](C(N)=O)[C@@H](C)O)C(C)C` [Example 33, N^ε28-[(4S)-4-carboxy-4-[[(4S)-4-carboxy-4-[[2-[2-[2-[[2-[2-[2-[[(4S)-4-carboxy-4-(17-carboxyheptadecanoylamino)butanoyl]amino]ethoxy]ethoxy]acetyl]amino]ethoxy]ethoxy]acetyl]amino]butanoyl]amino]butanoyl]-[Aib2,His3,Leu10,Glu15,Arg20,Glu21,Leu27,Lys28]-Glucagon amide] (H-H[Aib]HGTFTSDLSKYLESRRAREFVQWLLK([γGlu-γGlu-AEEA-AEEA-γGlu-C18 diacid])T-NH2; N-terminus assumed), for which the IC50 is 2 nM. Next, `CC(C)C[C@H](NC(=O)[C@H](Cc1ccc(O)cc1)NC(=O)[C@H](CCCCN)NC(=O)[C@H](CO)NC(=O)[C@H](CC(C)C)NC(=O)[C@H](CC(=O)O)NC(=O)[C@H](CO)NC(=O)[C@@H](NC(=O)[C@H](Cc1ccccc1)NC(=O)[C@@H](NC(=O)CNC(=O)[C@H](Cc1c[nH]cn1)NC(=O)C(C)(C)NC(=O)[C@@H](N)Cc1c[nH]cn1)[C@@H](C)O)[C@@H](C)O)C(=O)N[C@@H](CCC(=O)O)C(=O)N[C@@H](CO)C(=O)N[C@@H](CCCCN)C(=O)N[C@@H](CCCNC(=N)N)C(=O)N[C@@H](C)C(=O)N[C@@H](CCCNC(=N)N)C(=O)N[C@@H](CCC(=O)O)C(=O)N[C@@H](Cc1ccccc1)C(=O)N[C@H](C(=O)N[C@@H](CCC(N)=O)C(=O)N[C@@H](Cc1c[nH]c2ccccc12)C(=O)N[C@@H](CC(C)C)C(=O)N[C@@H](CC(C)C)C(=O)N[C@@H](CCCCNC(=O)CC[C@H](NC(=O)CC[C@H](NC(=O)CC[C@H](NC(=O)CCCCCCCCCCCCCCCCC(=O)O)C(=O)O)C(=O)O)C(=O)O)C(=O)N[C@H](C(N)=O)[C@@H](C)O)C(C)C` [Example 34, N^ε28-[(4S)-4-carboxy-4-[[(4S)-4-carboxy-4-[[(4S)-4-carboxy-4-(17-carboxyheptadecanoylamino)butanoyl]amino]butanoyl]amino]butanoyl]-[Aib2,His3,Leu10,Glu15,Lys17,Arg20,Glu21,Leu27,Lys28]-Glucagon amide] (H-H[Aib]HGTFTSDLSKYLESKRAREFVQWLLK([γGlu-γGlu-γGlu-C18 diacid])T-NH2; N-terminus assumed): 0.2 nM. Next, `CC(C)C[C@H](NC(=O)[C@H](Cc1ccc(O)cc1)NC(=O)[C@H](CCCCN)NC(=O)[C@H](CO)NC(=O)[C@H](CC(C)C)NC(=O)[C@H](CC(=O)O)NC(=O)[C@H](CO)NC(=O)[C@@H](NC(=O)[C@H](Cc1ccccc1)NC(=O)[C@@H](NC(=O)CNC(=O)[C@H](Cc1c[nH]cn1)NC(=O)C1(NC(=O)[C@@H](N)Cc2c[nH]cn2)CCC1)[C@@H](C)O)[C@@H](C)O)C(=O)N[C@@H](CCC(=O)O)C(=O)N[C@@H](CO)C(=O)N[C@@H](CCCNC(=N)N)C(=O)N[C@@H](CCCNC(=N)N)C(=O)N[C@@H](C)C(=O)N[C@@H](CCC(N)=O)C(=O)N[C@@H](CC(=O)O)C(=O)N[C@@H](Cc1ccccc1)C(=O)N[C@H](C(=O)N[C@@H](CCC(N)=O)C(=O)N[C@@H](Cc1c[nH]c2ccccc12)C(=O)N[C@@H](CC(C)C)C(=O)N[C@@H](CC(C)C)C(=O)N[C@@H](CCCCNC(=O)CNC(=O)[C@H](CO)NC(=O)[C@H](CCC(=O)O)NC(=O)CNC(=O)[C@H](CO)NC(=O)CC[C@H](NC(=O)CC[C@H](NC(=O)CCCCCCCCCCCCCCCCC(=O)O)C(=O)O)C(=O)O)C(=O)N[C@H](C(N)=O)[C@@H](C)O)C(C)C` [Example 35, N^ε28-[2-[[(2S)-2-[[(2S)-4-carboxy-2-[[2-[[(2S)-2-[[(4S)-4-carboxy-4-[[(4S)-4-carboxy-4-(17-carboxyheptadecanoylamino)butanoyl]amino]butanoyl]amino]-3-hydroxypropanoyl]amino]acetyl]amino]butanoyl]amino]-3-hydroxypropanoyl]amino]acetyl]-[Acb2,His3,Leu10,Glu15, Leu27,Lys28]-Glucagon amide] (I: H-H[Ac4c]HGTFTSDLSKYLESRRAQDFVQWLLKT-NH2 / II: {C18 diacid-γGlu-γGlu}-SGESG; amide I:28-II:C; N-terminus assumed): 0.7 nM.
